In a melting point compilation (Tetko et al.):

SMILES	melting point
COc1ccc(C(=NCc2ccccc2)c2ccc(OC)cc2)cc1	90 °C
Cc1nc(C)c(C=O)s1	30 °C
Cc1cc(N)ccc1O	176 °C
CCC1(O)CCC2C3CCC4=CCCCC4C3CCC21C (stereo unspecified)	77 °C
Nc1nn2c(C(F)(F)F)cc(=O)[nH]c2c1/N=N/c1c(Br)cc(Br)cc1Br	92 to 94 °C
CCOC(=O)c1cc2cc3c4c(c2oc1=O)CCCN4CCC3	140 to 144 °C
O=CC(F)(F)C(F)(F)C(F)(F)C(F)(F)C(F)(F)C(F)(F)C(F)(F)C(F)(F)C(F)(F)C(F)(F)F	70 to 72 °C
CC(C)(C)N(NC(=O)c1ccccc1)C(=O)c1ccc(Cl)cc1Cl	134 °C
Nc1ccncc1Br	67 to 71 °C
Cc1nsc(-c2ccccc2)n1	50 to 52 °C
O=CC(C=O)c1cnccn1	202 to 207 °C
COc1ccc(-c2nn3c(COc4ccccc4)nnc3s2)cc1OC	106 °C
O=C(O)c1cc(=O)cc(C(=O)O)o1	262 °C
O=C(NCSCc1ccccc1)c1ccccc1	79 to 80 °C
CC(C)c1ccc(NC(=O)N(C)C)cc1	158 °C
O=C1C(=Cc2ccccc2)N=C(N2CCOCC2)N1c1ccccc1	235 °C
CCCCCCCCCCCCCCCCOP(=O)(O)OCCCCCCCCCCCCCCCC	74.5 °C
CS(=O)(=O)Nc1ccc2nn(C3CCCC3)nc2c1	126 °C
Fc1ccc(NC(=S)Nc2cc(Cl)cc(Cl)c2)cc1	164 °C
CC(=O)NC(C)=O	79 °C
OC1(C#Cc2ccccc2)Cc2ccccc21 (stereo unspecified)	99 °C
NC(=O)CCCCC(N)=O	226 °C

SMILES	melting point
O=C(O)C=Cc1c(F)cccc1Cl	163 to 165 °C
O=C(Cc1ccccc1)c1ccc2c3c(ccc([N+](=O)[O-])c13)CC2	189 °C
COc1ccc(N=C=S)cc1OC	48 °C
CC(C)c1ccc2cc(C(C)C)ccc2c1	69 °C
OCc1ccc(-n2cncn2)cc1	124 to 125 °C
Cc1ccc(C#N)cc1F	47 °C
OCc1cccc2nonc12	72 °C
C=CCCCCCCCCC(=O)OCC	-38 °C
Brc1cnc2[nH]ccc2c1	179 °C
O=[N+]([O-])c1ccc(-c2nnc3n2NC(c2ccccc2O)S3)cc1 (stereo unspecified)	195 °C
CC(C)N(C(=O)COc1nnc(C(F)(F)F)s1)c1ccc(F)cc1	78 °C
O=C1c2ccccc2C(=O)N1c1ccccc1	210 °C
COc1ccc(C=C2SC(=NN=CC(C)C)NC2=O)cc1	258 to 260 °C
CC(=O)C(=Cc1ccc(-c2ccccc2[N+](=O)[O-])o1)C(C)=O	127 to 128 °C
CCOC(=O)C(Cl)Cc1cc(-n2nc(C)n(C(F)F)c2=O)c(F)cc1Cl (stereo unspecified)	-22.1 °C
CC(C)(C)OC(=O)NCC1CCNCC1	106 to 108 °C
O=C(O)c1cc(O)cc(C(=O)O)c1	293 °C
O=C(O)c1ccc(-n2nc(C(=O)c3cccs3)s/c2=N\C(=O)c2ccccc2)cc1	219 °C
NS(=O)(=O)c1ccc(S(=O)(=O)CCCO)c(F)c1	130 °C
Nc1cccc(F)c1	-5 °C
COc1ccc(C(O)C(C)(C)C(=O)O)cc1 (stereo unspecified)	115 to 117 °C
Fc1ccccc1-c1ccccc1F	112 to 114 °C

SMILES	melting point
Cc1ccc(S(=O)(=O)Nc2ccccc2C)cc1	110 °C
O=Nc1c(-c2cccs2)nc2ncccn12	239 °C
Clc1cc2oc3cc(Cl)c(Cl)cc3c2cc1Cl	227 °C
O=Cc1c(O)cc(Cl)cc1Cl	52 °C
O=C(NC(NC(=O)c1ccccc1)c1ccccc1OCc1ccccc1Cl)c1ccccc1	241 to 243 °C
O=S(=O)(Cl)c1ccc(F)cc1C(F)(F)F	50 °C
Cc1ccc(S(=O)(=O)Cl)cc1[N+](=O)[O-]	38 to 40 °C
COc1ccc(C2Nn3c(nnc3-c3cccnc3)S2)cc1 (stereo unspecified)	219 °C
FC(F)(F)C(F)(Cl)Cl	-56.6 °C
CC1(C(=O)O)CCC(O)(CC(O)c2ccccc2)C1(C)C (stereo unspecified)	188 °C
Clc1c(Br)c(Br)c2c(c1Br)Oc1c(Br)c(Br)c(Cl)c(Br)c1O2	385 °C
CC(=O)OC1CC2(C)C(CC(O)C3C4(C)CCC(O)C(C)C4CCC32C)C1=C(CCC=C(C)C)C(=O)O (stereo unspecified)	192 °C
Nc1ccc(S(=O)(=O)N2CCOCC2)cc1	216 to 218 °C
CCn1nc(C)c(Br)c1C(=O)O	158 to 162 °C
O=C(O)c1cccc(-n2cncn2)c1	262 to 268 °C
N#C/C(=C\c1ccc(Cl)cc1Cl)c1nc2ccccc2[nH]1	249 °C
Cc1ccccc1C(=O)NCC(=O)O	161 to 165 °C
CC(C)[C@@H](N)C(=O)O	302 to 303 °C
CC1(C)CC(=O)C(=Cc2ccc(-c3ccc(Cl)cc3)o2)C(=O)C1	206 °C
COC(=O)C(C)Oc1ccc(Oc2ccc(Cl)cc2Cl)cc1 (stereo unspecified)	44 °C
Cc1ccc(C(=O)c2cc3c(cc2Br)OCCO3)cc1	110 to 112 °C
CCS(=O)CC	14 °C

SMILES	melting point
O=C1CCCC(O)=C1Cl	198 to 204 °C
CC(O)CCO (stereo unspecified)	-54 °C
Cc1ccc(C(O)c2ccc(C)cc2)cc1	71 °C
NN(c1ccccc1)c1ccccc1	50.5 °C
COP(=O)(OC)OC(=CCl)c1ccc(Cl)cc1Cl	69.5 °C
CSc1ccc(C(F)(F)F)cc1[N+](=O)[O-]	94 to 96 °C
CCOc1ccc(-c2nnc3n2NC(c2ccc([N+](=O)[O-])cc2)S3)cc1 (stereo unspecified)	98 °C
Cc1cccc(O[Si]23OCCN(CCO2)CCO3)c1	166 °C
Cc1[nH]c2ccc(C(=O)O)cc2c1C	239 to 242 °C
CCOC(=O)C(C#N)=Cc1ccccc1Cl	88 °C
CCCCCNc1cc(=O)oc2ccccc12	163 °C
CCOc1n[nH]c(=O)c(Br)c1Br	206 °C
NC(CO)(Cc1ccccc1)C(=O)O (racemic)	245 to 263 °C
CSc1nc(=O)n2ccc(C)cc2n1	170 to 173 °C
C=C(C(=O)O)c1ccccc1	106 °C
O=CC(Cl)(Cl)Cl	-57.5 °C
CC1=CC(C(=O)O)c2ccccc21 (stereo unspecified)	139 °C
c1ccc(-c2noc(-c3ccccc3)n2)cc1	109 °C
O=C(C=Cc1ccccc1)c1cccc(C(=O)C=Cc2ccccc2)c1	142 °C
COC(=O)c1ccc(S(=O)(=O)c2ccc(C(=O)OC)cc2)cc1	193 to 200 °C
N[C@@H](CSCc1ccccc1)C(=O)O	209 to 214 °C
NC1(C(=O)O)CCCC1	320 to 322 °C

The remaining lines, values ahead:

melting point	SMILES
82 to 83 °C	Cc1nc(-c2ccccc2)sc1N=C=O
-90 °C	C=COC(=O)C(CC)CCCC (stereo unspecified)
115 °C	CC(C)c1cc(C(C)C)c(S(N)(=O)=O)c(C(C)C)c1
160 °C	O=C1N(c2ccccc2)C(=O)[C@@]2(Cl)C(c3ccccc3)(c3ccccc3)C[C@@]12Cl
219 °C	O=C1CCCC2=C1[C@@H](c1cccc([N+](=O)[O-])c1)[C@@H]1C(=O)CCC[C@@]1(O)O2
287 to 290 °C	O=C(O)C=C1OC(=O)c2ccccc21
86 to 92 °C	O=C(O)[C@@H]1C[C@H]1c1ccccc1 (relative stereo)
82 °C	c1n[nH]c2c1CCCC2
40 °C	N#CC1=Cc2ccccc2C1
240 °C	O=C(Nc1ccc(Cl)cc1)c1cc(Br)ccc1O
151 to 153 °C	Cc1ccc(S(=O)(=O)c2ncsc2SCc2ccc(Cl)cc2)cc1
78 °C	CC(=O)CC(=O)c1ccc2ccccc2c1
236 °C	O=C1OC(c2ccc([N+](=O)[O-])cc2)=NC1=Cc1ccccc1
90 °C	O=C(C=Cc1ccccc1)c1ccccc1O
100 to 102 °C	CC(C)CC1(NC(=O)c2ccccc2)COCOC1=O (racemic)
72 to 74 °C	Brc1ccc2nonc2c1
176 to 178 °C	NC(=S)c1c(Cl)cc(C(F)(F)F)cc1Cl
190 °C	NS(=O)(=O)c1cc2c(s1)C(O)CCS2=O (stereo unspecified)
345 °C	COc1cccc2c1C(=O)c1c(O)c3c(c(O)c1C2=O)CC(O)(C(=O)CO)CC3OC1CC(N)C(O)C(C)O1 (stereo unspecified)

melting point	SMILES
172 °C	CCc1c(C)ccc2c1CCC1C2CCC2CC(O)CCC21C (stereo unspecified)
257 °C	Cc1cc(O)c2c(c1)C(=O)c1cc(O)cc(O)c1C2=O
182 °C	CC12CCC(=O)C3OC31CC(C1(O)CCC3(C)C(=O)CCC34OC14)C2=O (stereo unspecified)
80 to 80.5 °C	O=C(Cl)c1cccc(-c2nccs2)c1
64 °C	Cc1cccc(CC(=O)O)c1
-50 °C	CC(C)C(=O)OCC(C)(C)C(O)C(C)C (stereo unspecified)
124 °C	COc1cc(/C=C/c2cc(C)cc(OC)c2O)ccc1O
308 to 309 °C	O=Cc1c[nH]c2c(C(=O)O)cccc12
138 °C	CC(=O)CCc1cc2c(cc1[N+](=O)[O-])CCC(C)N2C(=O)c1ccccc1 (stereo unspecified)
115 to 118 °C	O=Cc1cc(C#Cc2ccccc2)cs1
142 °C	O=C(NCO)c1cccnc1
151 °C	COc1ccc2c(c1)CC(CCC(=O)O)(CCC(=O)O)C2=O
78.5 °C	COc1cc(Br)cc(OC)c1OC
214 °C	O=C1c2cc3ccccc3cc2-c2ccc3ccccc3c21
88.5 °C	CCOC(=O)Cc1cccc2ccccc12
-30 °C	C=C(C)C(=O)OCCN(C)C
209 °C	CCCOC(=O)C1=C(C)NC(=S)NC1c1cccc([N+](=O)[O-])c1 (stereo unspecified)
59 to 64 °C	c1cncc(Cn2cccc2)c1
71 to 75 °C	CC(C)(C)[N+]([O-])=Cc1ccccc1
